Source: patent US20230048888A1, “USE OF TRIAZOLOTRIAZINE DERIVATIVE IN TREATMENT OF DISEASES” (ZHEJIANG VIMGREEN PHARMACEUTICALS, LTD., priority 2019, published 2023)

Columns and labels:
human ADORA3 = target: T1, human ADORA3 (Homo sapiens, UniProt P0DMS8); assay: Calcium flow test (FLIPR), ADORA3 stably transfected CHO; assay type: cell-based; conditions: Table 9
T1 construct: host or cells: CHO
T1 sequence (P0DMS8 1-318): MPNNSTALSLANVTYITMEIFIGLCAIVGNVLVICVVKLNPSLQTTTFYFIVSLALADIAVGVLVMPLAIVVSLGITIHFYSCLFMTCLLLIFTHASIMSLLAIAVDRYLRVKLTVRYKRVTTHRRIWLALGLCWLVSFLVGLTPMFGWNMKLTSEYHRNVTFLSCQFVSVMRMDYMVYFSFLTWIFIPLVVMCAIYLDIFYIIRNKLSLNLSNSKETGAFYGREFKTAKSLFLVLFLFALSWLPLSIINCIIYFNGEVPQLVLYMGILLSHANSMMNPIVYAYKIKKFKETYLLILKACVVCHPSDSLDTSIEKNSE
Description: In this experiment, stably transfected cell lines over-expressing adenosine receptor coupled to human Gq were used, and the antagonistic function of Compound 22 was evaluated by testing the changes in intracellular calcium ion concentration. The binding of the A2AR agonist to A2AR could activate a downstream pathway to increase the intracellular calcium ion concentration. The antagonist would competitively occupy the binding site where the agonist binds to A2AR, thereby interrupting the intracellular signal transduction and leading to a change in the intracellular calcium ion concentration. By detecting the strength of the intracellular calcium ion signal, the antagonistic activities of the compound on human ADORA1, ADORA2A, ADORA2B and ADORA3 adenosine receptors were determined. […]
7) The FLIPR instrument software was operated; following a set program, 10 μL of experimental buffer salt solution was added to the cell plate; and fluorescence signals were read. Then, 10 μL of the reference compound of agonist at a predetermined concentration was added to the cell plate, and the fluorescence signals were read. After reading, data was exported by means of “Max-Min” and “Read 91 to Maximum allowed” in the software, the EC80 of each cell line was calculated, and an agonist with a concentration of 6×EC80 was prepared.
9) The FLIPR instrument software was operated; following a set program, 10 μL of the test compound and 10 μL of the reference compound were added at a predetermined concentration to the cell plate; and the fluorescence signals were read. Then, 10 μL of the reference compound of agonist at a concentration of 6×EC80 was added to the cell plate, and the fluorescence signal were read. For the antagonist detection of the compound, data was exported by means of “Max-Min” and “Read 1 to 90” in the software. […]

[1] = target: T2, Human adenosine ADORA3 receptor membrane protein (Homo sapiens, UniProt P0DMS8); assay: Radioisotope ligand competitive binding, ADORA3 ([3H] HEMADO); conditions: ADORA3 (IC50, nM, n = 3), binding test
T2 construct: purchased PerkinElmer ES-012-M400UA
T2 sequence (P0DMS8 1-318): T1 sequence (P0DMS8 1-318)
Description: ADORA3: 25 mM HEPES pH 7.4, 10 mM MgCl2, 1 mM CaCl2, 0.5% BSA
4) Preparation of compounds: the test compounds and the reference compounds were separately diluted with 100% DMSO. For the test compounds, the initial concentration was 10 μM, with double secondary wells; 4-fold gradient dilution was carried out at 10 points; and the final working concentration was 0.038 nM-10 μM (for the second and third detection of the test compound against an ADORA2A target, the initial concentration was 2 μM, with double secondary wells, 4-fold gradient dilution was carried out at 10 points, and the final working concentration was 0.0076 nM-2 μM). For the ADORA1, ADORA2A, ADORA2B, and ADORA3 reference compounds, the initial concentration was 1 μM, with double secondary wells, 4-fold gradient dilution was carried out at 10 points, and the final working concentration was 0.0038 nM-1 μM.
1 μL of a sample to be tested and 1 μL of a reference compound were added to a 96-well plate in sequence. […] 100 μL of cells and 100 μL of isotopes were added to all experimental wells. The 96-well plate was sealed; ADORA1, ADORA2B, and ADORA3 were incubated for 1 hour on a shaker (300 rpm) at room temperature (22° C.); and ADORA2A was incubated for 2 hours on a shaker (300 rpm) at room temperature (22° C.). At the same time, a GF/C filter plate was soaked with ADORA1, ADORA2A, ADORA2B, and ADORA3 by using 0.3% PEI for at least 30 minutes at room temperature, at 50 μL/well. After the incubation was completed, the incubated reaction system was collected onto the GF/C filter plate with a Harvester, washed 4 times and then dried for 0.5 hours in an oven at 50° C. The bottom of the dried GF/C filter plate was sealed with a film, 50 μL of scintillation solution was added to each well, which was then sealed with a Top-seal-A film. With Microbeta readings, the data was analyzed by GraphPad Prism 5.0.
% Inhibition=100×(1−(Sample_raw value−Low control_Average)/(High control_Average−Low control_Average))
The data was fitted with “log(inhibitor) vs response-variable slope” in GraphPad Prism 5.0 to obtain IC50.

Question: Which results are given for `Nc1nc2ccc(Cl)cc2c2nc(-c3ccco3)nn12` [CGS-15943, reference compound]?
Answer: IC50 (human ADORA3): 32.1 ± 4.52 nM; IC50 ([1]; Table 10 (IC50)): 18 ± 11.4 nM; IC50 ([1]; Table 11): 14.5 nM
